In assay [1] the target is T1, OTP86^DYW (Arabidopsis thaliana, UniProt Q9M1V3).
T1 construct: gene PCMP-H83; isolated DYW domain, residues 826-960; N-terminal Strep-tag cut by TEV, GAM left; E. coli Rosetta2 (DE3); about 15 kDa, monomer
T1 sequence (Q9M1V3 826-960): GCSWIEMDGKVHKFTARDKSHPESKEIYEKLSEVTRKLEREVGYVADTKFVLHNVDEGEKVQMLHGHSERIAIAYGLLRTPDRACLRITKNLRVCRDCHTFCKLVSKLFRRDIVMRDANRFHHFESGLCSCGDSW
The assay can be described thus: differential scanning fluorimetry (SYPRO orange). Format: binding. Particulars: 20 mM Tris pH 7.5, 150 mM NaCl, destabilizing.

Another assay addresses T2, PPR56 (Physcomitrium patens, UniProt A0A2K1IWP1).
T2 construct: gene LOC112295756; recombinant from pETG41K::PPR56 (His-MBP fusion), amylose-purified from E. coli; tag kept; PPR tract, E1, E2 and DYW domain
The assay can be described thus: in vitro C-to-U RNA editing, RT-PCR sequencing. Format: biochemical. Particulars: nad4 RNA substrate, pH 7.5, 16 °C, activator.

In assay [2] the target is T3, OTP86^DYW (Arabidopsis thaliana, UniProt Q9M1V3, L917A).
T3 construct: gene PCMP-H83; isolated DYW domain, residues 826-960; N-terminal Strep-tag cut by TEV, GAM left; E. coli Rosetta2 (DE3); about 15 kDa, monomer
T3 sequence (Q9M1V3 826-960 L917A): T1 sequence (Q9M1V3 826-960) with L92A
The assay can be described thus: differential scanning fluorimetry (SYPRO orange). The assay is classed as binding. Particulars: 20 mM Tris pH 7.5, 150 mM NaCl; destabilizing. On the technique in general: Differential scanning fluorimetry follows unfolding on heating by fluorescence.

The target of assay [3] is T4, OTP86^DYW (Arabidopsis thaliana, UniProt Q9M1V3, H892C).
T4 construct: gene PCMP-H83; isolated DYW domain, residues 826-960; N-terminal Strep-tag cut by TEV, GAM left; E. coli Rosetta2 (DE3); about 15 kDa, monomer
T4 sequence (Q9M1V3 826-960 H892C): T1 sequence (Q9M1V3 826-960) with H67C
The assay can be described thus: differential scanning fluorimetry (SYPRO orange). The assay is classed as binding. Conditions: 20 mM Tris pH 7.5, 150 mM NaCl; destabilizing.

Assay [4] concerns the target T5, OTP86^DYW (Arabidopsis thaliana, UniProt Q9M1V3, K915A).
T5 construct: gene PCMP-H83; isolated DYW domain, residues 826-960; N-terminal Strep-tag cut by TEV, GAM left; E. coli Rosetta2 (DE3); about 15 kDa, monomer
T5 sequence (Q9M1V3 826-960 K915A): T1 sequence (Q9M1V3 826-960) with K90A
As to the kind of experiment: differential scanning fluorimetry (SYPRO orange). Format: binding. Conditions: 20 mM Tris pH 7.5, 150 mM NaCl; destabilizing.

Residue numbers refer to the chain shown, from its start.

Consider four molecules from PMC7611903, “DYW domain structures imply an unusual regulation principle in plant organellar RNA editing catalysis” (Nature catalysis, 2021).

T2 sequence (A0A2K1IWP1 entry or part of it): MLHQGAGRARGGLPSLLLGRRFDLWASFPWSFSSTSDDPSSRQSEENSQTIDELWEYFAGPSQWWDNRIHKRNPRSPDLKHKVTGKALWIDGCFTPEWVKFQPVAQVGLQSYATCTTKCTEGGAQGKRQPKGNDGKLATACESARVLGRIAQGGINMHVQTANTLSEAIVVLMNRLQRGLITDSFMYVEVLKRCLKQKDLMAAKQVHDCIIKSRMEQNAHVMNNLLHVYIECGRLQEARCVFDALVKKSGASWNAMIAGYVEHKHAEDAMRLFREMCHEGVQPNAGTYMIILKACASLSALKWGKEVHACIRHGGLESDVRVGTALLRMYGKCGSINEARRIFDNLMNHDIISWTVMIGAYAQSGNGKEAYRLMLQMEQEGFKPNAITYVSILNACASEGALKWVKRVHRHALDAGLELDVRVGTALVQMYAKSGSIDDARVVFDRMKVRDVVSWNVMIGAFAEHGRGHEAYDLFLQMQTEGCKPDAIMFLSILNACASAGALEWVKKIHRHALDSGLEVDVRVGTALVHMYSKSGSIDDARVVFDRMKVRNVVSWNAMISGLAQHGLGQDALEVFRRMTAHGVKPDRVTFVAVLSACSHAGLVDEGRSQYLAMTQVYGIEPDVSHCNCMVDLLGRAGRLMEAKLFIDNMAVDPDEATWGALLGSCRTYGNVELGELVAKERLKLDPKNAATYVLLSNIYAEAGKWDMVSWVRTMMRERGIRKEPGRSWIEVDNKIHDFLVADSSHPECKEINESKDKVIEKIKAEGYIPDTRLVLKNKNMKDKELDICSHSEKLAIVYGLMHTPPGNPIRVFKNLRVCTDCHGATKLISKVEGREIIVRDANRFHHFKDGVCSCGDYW

Turning to `Nc1ncnc2c1ncn2[C@@H]1O[C@H](COP(=O)(O)OP(=O)(O)CP(=O)(O)O)[C@@H](O)[C@H]1O` [AMPPCP], the Tm at OTP86^DYW [1] (non-hydrolysable ATP analogue) was determined as 68 °C.
For `Nc1ncnc2c1ncn2[C@@H]1O[C@H](COP(=O)(O)OP(=O)(O)OP(=O)(O)O)[C@@H](O)[C@H]1O` [ATP], the “in vitro C-to-U RNA editing, RT-PCR sequencing” value (“in vitro C-to-U RNA editing” below) on PPR56 (may be allosteric) is “ATP activates PPR56 and PPR56^PPRE1E2–OTP86^DYW in a concentration-dependent fashion”. Further, the Tm on OTP86^DYW [1] (2 mM ATP, reversible, activator) was 65 °C; at OTP86^DYW [2], “a milder effect with ATP comparable to wild type was observed”; on OTP86^DYW [3] it was “we assessed the T m of H892C in the presence of the activators”.
Turning to `Nc1nc2c(ncn2[C@@H]2O[C@H](COP(=O)(O)OP(=O)(O)OP(=O)(O)O)[C@@H](O)[C@H]2O)c(=O)[nH]1` [GTP], the “in vitro C-to-U RNA editing” value on PPR56 is recorded as “GTP also activate both PPR proteins in a concentration-dependent manner”. Also, at OTP86^DYW [1] (2 mM GTP, reversible, activator), the Tm worked out at 65.3 °C.
For `O=C1NC(O)CCN1[C@@H]1O[C@H](CO)[C@@H](O)[C@H]1O` (stereo partly drawn) [tetrahydrouridine], on PPR56, the “in vitro C-to-U RNA editing” value is listed as “THU increases deaminase activity markedly for both proteins in a concentration-dependent manner”. The Tm is 60 °C on OTP86^DYW [1] (reversible, activator); “this effect is less severe with the K915A mutation” on OTP86^DYW [4]; “The L917A mutation showed a prominent decrease in T m when THU was added” on OTP86^DYW [2]; “The H892C mutant closely resembles the wild-type protein regarding activation, albeit less pronounced” on OTP86^DYW [3].
